Here are results for three compounds from BindingDB's records for doi:10.1124/jpet.104.078303 (Abbott Laboratories, 2005).

“And” between values parts separate entries of the source, which are not always exact repeats. Equal values may be shown once. A value given as a limit tells only on which side of the number the result lay.

Some targets named below: Histamine receptor H3 (Canis lupus familiaris, UniProt Q865E3); Hrh3 protein (Rattus norvegicus, UniProt Q5PPG3); Histamine H2 receptor (Homo sapiens, UniProt P25021); Histamine H4 receptor (Homo sapiens, UniProt Q9H3N8); Histamine H1 receptor (Homo sapiens, UniProt P35367).
In test [1] the target is Histamine H3 receptor (Homo sapiens, UniProt Q9Y5N1).
Histamine H3 receptor (Homo sapiens, UniProt Q9Y5N1), sequence (Q9Y5N1 whole entry): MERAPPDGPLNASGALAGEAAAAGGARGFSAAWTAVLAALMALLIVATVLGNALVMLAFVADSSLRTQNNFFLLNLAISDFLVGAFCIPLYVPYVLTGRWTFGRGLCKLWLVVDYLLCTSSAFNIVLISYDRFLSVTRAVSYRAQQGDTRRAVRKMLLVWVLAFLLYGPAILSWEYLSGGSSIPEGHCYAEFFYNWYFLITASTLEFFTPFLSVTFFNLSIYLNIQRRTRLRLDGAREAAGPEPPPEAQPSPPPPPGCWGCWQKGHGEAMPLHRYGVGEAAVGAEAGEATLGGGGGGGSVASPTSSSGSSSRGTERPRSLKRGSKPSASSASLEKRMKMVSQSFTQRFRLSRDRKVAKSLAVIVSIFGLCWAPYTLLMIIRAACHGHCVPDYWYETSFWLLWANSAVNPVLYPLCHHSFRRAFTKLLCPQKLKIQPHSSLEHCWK
Test [2] concerns the target Histamine H3 receptor (Cavia porcellus, UniProt Q9JI35).

As usually defined, the Ki is a measure of affinity in units of concentration, obtained from inhibition or displacement. A low value points to tighter binding.

Histamine H2 receptor, sequence (P25021 whole entry): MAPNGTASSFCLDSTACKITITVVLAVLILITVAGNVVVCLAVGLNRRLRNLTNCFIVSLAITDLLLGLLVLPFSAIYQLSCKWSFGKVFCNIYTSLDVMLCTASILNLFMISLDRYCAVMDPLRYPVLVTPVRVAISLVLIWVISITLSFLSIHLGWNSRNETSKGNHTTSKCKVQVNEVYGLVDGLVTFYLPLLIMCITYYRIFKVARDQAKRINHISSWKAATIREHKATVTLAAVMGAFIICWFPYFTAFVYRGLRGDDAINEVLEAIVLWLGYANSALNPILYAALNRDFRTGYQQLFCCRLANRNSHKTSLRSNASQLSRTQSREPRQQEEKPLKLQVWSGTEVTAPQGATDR
Histamine receptor H3, sequence (Q865E3 whole entry): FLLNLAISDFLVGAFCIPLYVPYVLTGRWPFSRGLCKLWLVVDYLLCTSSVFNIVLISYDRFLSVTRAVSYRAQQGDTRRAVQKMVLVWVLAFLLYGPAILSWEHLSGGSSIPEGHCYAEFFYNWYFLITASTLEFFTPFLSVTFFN
Histamine H4 receptor, sequence (Q9H3N8 whole entry): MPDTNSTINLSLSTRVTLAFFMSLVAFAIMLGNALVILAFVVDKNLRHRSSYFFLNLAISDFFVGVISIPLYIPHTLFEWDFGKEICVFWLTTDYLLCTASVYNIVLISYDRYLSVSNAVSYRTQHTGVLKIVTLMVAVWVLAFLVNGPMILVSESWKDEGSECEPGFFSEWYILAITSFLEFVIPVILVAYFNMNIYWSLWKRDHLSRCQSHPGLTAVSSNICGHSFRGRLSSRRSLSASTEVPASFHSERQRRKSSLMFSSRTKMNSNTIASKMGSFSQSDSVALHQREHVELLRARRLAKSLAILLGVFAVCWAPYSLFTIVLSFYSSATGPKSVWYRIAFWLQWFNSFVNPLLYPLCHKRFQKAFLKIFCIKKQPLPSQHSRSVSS
Hrh3 protein, sequence (Q5PPG3 whole entry): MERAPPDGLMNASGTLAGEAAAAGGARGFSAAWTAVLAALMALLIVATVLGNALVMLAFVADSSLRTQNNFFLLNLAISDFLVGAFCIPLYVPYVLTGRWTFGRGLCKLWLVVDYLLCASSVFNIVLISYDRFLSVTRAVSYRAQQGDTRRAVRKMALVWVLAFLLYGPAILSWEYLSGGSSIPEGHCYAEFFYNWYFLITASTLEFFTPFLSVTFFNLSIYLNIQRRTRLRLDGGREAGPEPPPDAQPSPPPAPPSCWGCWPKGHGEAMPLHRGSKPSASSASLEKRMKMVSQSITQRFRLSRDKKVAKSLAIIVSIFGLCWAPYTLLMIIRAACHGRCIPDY
Histamine H3 receptor (Cavia porcellus, UniProt Q9JI35), sequence (Q9JI35 whole entry): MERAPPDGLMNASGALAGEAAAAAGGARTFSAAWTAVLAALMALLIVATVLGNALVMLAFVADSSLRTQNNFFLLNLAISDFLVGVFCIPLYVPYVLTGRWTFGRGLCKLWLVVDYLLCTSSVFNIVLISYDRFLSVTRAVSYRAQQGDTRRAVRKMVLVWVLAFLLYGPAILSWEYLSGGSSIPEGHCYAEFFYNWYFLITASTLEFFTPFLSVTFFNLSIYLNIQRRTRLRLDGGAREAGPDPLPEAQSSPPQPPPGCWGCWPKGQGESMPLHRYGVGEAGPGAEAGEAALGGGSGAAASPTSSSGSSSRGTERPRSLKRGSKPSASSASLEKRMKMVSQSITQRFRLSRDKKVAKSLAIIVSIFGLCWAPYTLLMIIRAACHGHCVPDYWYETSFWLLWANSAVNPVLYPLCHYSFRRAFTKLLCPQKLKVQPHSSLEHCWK
Histamine H1 receptor, sequence (P35367 whole entry): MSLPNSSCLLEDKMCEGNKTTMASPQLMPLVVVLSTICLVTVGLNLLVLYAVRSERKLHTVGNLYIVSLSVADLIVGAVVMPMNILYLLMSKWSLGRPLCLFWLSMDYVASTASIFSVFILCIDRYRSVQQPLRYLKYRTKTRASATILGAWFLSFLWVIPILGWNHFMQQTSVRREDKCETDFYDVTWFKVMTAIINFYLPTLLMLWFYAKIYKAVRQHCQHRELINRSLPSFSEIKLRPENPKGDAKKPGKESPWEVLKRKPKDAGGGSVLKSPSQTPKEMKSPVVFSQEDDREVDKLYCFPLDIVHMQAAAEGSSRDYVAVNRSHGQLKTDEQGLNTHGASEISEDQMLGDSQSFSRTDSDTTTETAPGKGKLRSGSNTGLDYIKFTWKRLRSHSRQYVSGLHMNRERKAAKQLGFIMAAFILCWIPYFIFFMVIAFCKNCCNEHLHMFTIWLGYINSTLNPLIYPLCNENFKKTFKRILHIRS

Take `CC(C)(C)CCC#C[C@@H]1C[C@H]1c1c[nH]cn1`: the Ki on Histamine H3 receptor [1] was 5.25 nM and 12.3 nM; on Histamine receptor H3, 1.32 nM; on Hrh3 protein, 0.11 nM and 0.25 nM; at Histamine H3 receptor [2], 0.63 nM; at Histamine H2 receptor, above 10000 nM; on Histamine H4 receptor, 51.3 nM. For the same compound, the Ki at Histamine H1 receptor was above 10000 nM.

Consider `C[C@@H]1CC[C@@H](C)N1CCCOc1ccc(-c2ccc(C(=O)N3CCOCC3)cc2)cc1` [(4'-(3-((2R,5R)-2,5-dimethylpyrrolidin-1-yl)propoxy)biphenyl-4-yl)(morpholino)methanone], for which the Ki is 0.41 nM and 0.43 nM on Histamine H3 receptor [1]; 1.2 nM at Histamine receptor H3; 1.66 nM and 1.45 nM on Hrh3 protein; 0.55 nM at Histamine H3 receptor [2]; above 10000 nM on Histamine H2 receptor; above 10000 nM on Histamine H4 receptor.

As to `C[C@@H]1CCCN1CCc1cc2cc(-c3ccc(C#N)cc3)ccc2o1` [(R)-4-(2-(2-(2-methylpyrrolidin-1-yl)ethyl)benzofuran-5-yl)benzonitrile], the Ki at Histamine receptor H3 is 3.89 nM; on Hrh3 protein, 1.23 nM and 3.24 nM; on Histamine H2 receptor it was 6760 nM; on Histamine H4 receptor, above 10000 nM; at Histamine H1 receptor, 1620 nM.
